Measurements taken from patent US20250270170A1, “2,3-DIMETHOXY-5-METHYL-1,4-BENZOQUINONE ALKYL ALCOHOL DERIVATIVE AND USE THEREOF” (BEIJING ANJIANXI BIO-MEDICAL TECHNOLOGY CO., LTD., priority 2021, published 2025).
“And” between values parts separate entries of the source, which are not always exact repeats. Equal entries are not always repeated. “Also recorded” adds a separate entry of the source.

Assays:
Format in all cases: in vivo, C57BL/6J mice
[1] = system: cisplatin-induced acute kidney damage in mice; test: Example 11: renal pathology (HE, PAS) and pathological scoring; conditions: bid, listed as R01
Experimental: (§1) 42 male C57BL/6J mice (age: 6 to 8 weeks, body weight 18-20 g, certificate number: 11400700238365) were purchased from Si Pei Fu (Beijing) Biotechnology Co., Ltd., and raised in an SPF-grade animal room of the Institute of Materia Medica, Chinese Academy of Medical Sciences, at a temperature of 20 to 25° C., a relative humidity of 40% to 70%, and a cycle of 12 hours of light and 12 hours of dark. The animals had free access to water and food. After 3 days of normal feeding, mice with good physical conditions after the veterinary examination were selected for this assay. Before grouping, a marker was used to mark on the base of the animals' tail. After grouping, each animal was marked with an ear cutout (7 mice in each group).
(§2) Assay animals: 42 7-week-old male C57 mice were used for animal testing after an adaptive feeding.
(§3) Group 1: blank control group;
(§4) The preparation of the R01 formulation administration test solution was the same as that in Example 5: an appropriate amount of the R01 formulation was weighed according to the three dosages set in the assay, respectively, and an appropriate volume of 0.5% CMC-Na aqueous solution was added. The mixture was vortexed and sonicated until mixed evenly, to give the administration test solutions with concentrations of […], respectively, which were ready for use.
(§5) Animal testing period: 7 days (excluding adaptive feeding), hereinafter referred to as: D1-D7.
1. […]
The body weight of the animals when being grouped for administration in each group was recorded. The body weight and the kidney weight at the end of the assay were also recorded, and the kidney coefficient was calculated. The creatinine and urea nitrogen values in the blood samples sent for testing were recorded. […]

[2] = system: cisplatin-induced acute kidney damage in mice; test: Example 11: kidney weight and kidney coefficient in cisplatin-induced acute kidney damage model; conditions: for Kidney coefficient (kidney weight/body weight), x (mean) / Kidney weight after the assay, x (mean): group mean
Experimental: as §1, §2, §3, §4, §5
(§6) 1. The first group was a solvent control group: N=7, all mice were males (the same below); • a) 0.5% solution of sodium carboxymethyl cellulose was gavagely administered from D1 to D6 (twice a day for each animal, with an interval of 8 hours between the morning and the afternoon). • b) Physiological saline was intraperitoneally injected in one-time on D4. • c) On D7, blood was collected from the orbit for euthanasia (300 ul of serum was extracted), the left kidney was fixed in formaldehyde, and the right kidney was preserved in liquid nitrogen (WB study may be carried out).
(§7) 3) Each animal was weighed before euthanasia, and the weight was recorded. Two kidneys were weighed as soon as possible after euthanasia, and the weight was recorded. Then, the two kidneys were quickly fixed or cryopreserved, and the kidney coefficient of the mouse was calculated (kidney weight/mouse weight).
(§8) The body weight of the animals when being grouped for administration in each group was recorded. The body weight and the kidney weight at the end of the assay were also recorded, and the kidney coefficient was calculated. The creatinine and urea nitrogen values in the blood samples sent for testing were recorded. The kidneys were stained with HE and PAS, and the slides were scanned. A report was issued after the pathological analysis.
(§9) The assay data were calculated and processed statistically using Microsoft Office Excel 2007 software. Unless otherwise specified, the data were expressed as mean±standard error (Mean±SE), and t-test was used for comparison between two groups.

[3] = Example 11: body weight in cisplatin-induced acute kidney damage model; conditions: mouse, in vivo
Experimental: as §1, §2, §3, §4, §5, §6, §7, §8, §9

[4] = individual animals No. 1-7, cisplatin model, R01 6 mg/kg, listed as R01, 6 mg/kg
[5] = individual animals No. 1-7, cisplatin model, R01 18 mg/kg, listed as R01, 18 mg/kg
[6] = individual animals No. 1-7, cisplatin model, R01 36 mg/kg, listed as R01, 36 mg/kg

Which results are given for `COC1=C(OC)C(=O)C(CCCCCCCCCCOC(=O)Cc2c(C)n(C(=O)c3ccc(Cl)cc3)c3ccc(OC)cc23)=C(C)C1=O` [compound of formula (I)]?
pathological damage of kidneys ([1]; cisplatin 10 mg/kg + R01 6 mg): severe renal tubular damage, epithelial cell necrosis and slight protein casts and 2 animals suffered serious kidney damage, and the others were mildly damaged and significantly reduced; pathological damage of kidneys ([1]; cisplatin 10 mg/kg + R01 36 mg): Only one mouse in this group showed slight pathological damage to the kidney; also recorded: basically complete kidney tissue morphology, slight damage; Kidney coefficient (kidney weight/body weight), x (mean) ([2]; cisplatin model, R01 6 mg/kg): 0.014; Kidney weight after the assay, x (mean) ([2]; cisplatin model, R01 6 mg/kg): 0.223 g; Kidney coefficient (kidney weight/body weight), x (mean) ([2]; cisplatin model, R01 18 mg/kg): 0.013; Kidney weight after the assay, x (mean) ([2]; cisplatin model, R01 18 mg/kg): 0.211 g; Kidney coefficient (kidney weight/body weight), x (mean) ([2]; cisplatin model, R01 36 mg/kg): 0.013; Kidney weight after the assay, x (mean) ([2]; cisplatin model, R01 36 mg/kg): 0.207 g; Kidney coefficient (kidney weight/body weight) [2, 4]: 0.013 (3×) and 0.015 and 0.014 (2×) and 0.018; Kidney weight after the assay [2, 4]: 0.207 g and 0.212 g and 0.209 g and 0.224 g and 0.228 g and 0.214 g and 0.270 g; Kidney coefficient (kidney weight/body weight) [2, 5]: 0.014 (3×) and 0.013 (4×); Kidney weight after the assay [2, 5]: 0.214 g and 0.211 g (2×) and 0.206 g and 0.215 g and 0.210 g and 0.213 g; Kidney coefficient (kidney weight/body weight) [2, 6]: 0.012 and 0.014 (4×) and 0.013 (2×); Kidney weight after the assay [2, 6]: 0.192 g and 0.216 g and 0.203 g and 0.228 g and 0.213 g and 0.189 g and 0.206 g; Kidney coefficient (kidney weight/body weight) ([2]; with cisplatin 10 mg/kg, amifostine 50 mg/kg i.p., R01 6, 18, 36 mg/kg bid): equivalent to that of the blank control group; Body weight after the assay, After x (mean) ([3]; 6 mg/kg): 16.2 g; Body weight, Before x- after x ([3]; 6 mg/kg): 4.2 g; Body weight after the assay, After x (mean) ([3]; 18 mg/kg): 16.2 g; Body weight, Before x- after x ([3]; 18 mg/kg): 4.3 g; Body weight after the assay, After x (mean) ([3]; 36 mg/kg): 16.1 g; Body weight, Before x- after x ([3]; 36 mg/kg): 4.4 g
